Test results from US20250177448A1, “NEW USE OF PEG-PHOSPHOLIPID MOLECULES” (ICOAT MEDICAL AB, priority 2022, published 2025).
“Also recorded” adds a separate entry of the source.

Assays:
CD4 = experiment: Antibody binding to surface antigen on PEG-phospholipid coated CCRF-CEM, flow cytometry; assay type: cell-based, human; conditions: 2 mg/ml in PBS, 30 minutes room temperature; antigen 15 nm
Experimental: (§1) CCRF-CEM were collected from cell culture medium (1×10^6 cells) and washed with PBS by centrifugation (250×g, 3 min, RT). A cell pellet of CCRF-CEM (1×10^6 cells) was incubated with PEG-phospholipid (50 μl, 2 mg/ml in PBS), 5 kDa unconjugated PEG (50 μl, 2 mg/ml in PBS) or PBS (50 μl, as control) for 30 min at RT with gentle mixing. After washing with PBS by centrifugation (200×g, 4° C., 3 min) twice, FITC-labeled three antibodies, FITC-anti-human CD52 from BioLegend (400 μg/ml, 40 μl), FITC-anti-human CD4 from BioLegend (200 μg/ml, 40 μl), or Alexa488-labelled anti-human CD8 from GeneTex (200 μg/ml, 40 μl, Alexa488 was labelled by the labelling kit) or PBS (40 μl) was mixed with the treated CCRF-CEM for 15 min at RT. As a control, CCRF-CEM was treated with 2 mg/ml PEG (5 kDa, in PBS) solution and additionally incubated with FITC- or Alexa488-labeled antibodies. After washing with PBS by centrifugation (200×g, 4° C., 3 min), CCRF-CEM were re-suspended with PBS (1 ml) for flow cytometry measurements. Samples were analyzed on a flow cytometer (BD LSR II, BD Biosciences). Post analysis processing was carried out in FlowJo (BD).
(§2) CCRF-CEM cells were incubated with PEG-phospholipid (2 mg/ml in PBS), free PEG (5 kDa, equivalent molecular weight used in the synthesis of PEG-phospholipid) or PBS (vehicle control) for 30 minutes at room temperature. After removing excess PEG-phospholipid, FITC-labelled antibodies directed towards surface antigens of different sizes, CD52, CD4, and CD8, were added. Samples were analyzed on a flow cytometer. […] The size of CD8 is estimated to be around 5-10 nm based on the crystal structure of the non-membranous part. Lastly, CD4-antibodies were not blocked by PEG-phospholipid, as expected, given that the size of the antigen (15 nm) is larger than the size of PEG-phospholipid (estimated to be around 6 nm) (FIG. 3A).

CD52 = experiment: as above; assay type: cell-based, human; conditions: 2 mg/ml in PBS, 30 minutes room temperature; antigen around 1 nm
Experimental: as §1, §2

CD8 = experiment: as above; assay type: cell-based, human; conditions: 2 mg/ml in PBS, 30 minutes room temperature; antigen around 5-10 nm
Experimental: as §1, §2

[1] = tested on: porcine kidney transplant, ischemia reperfusion injury; experiment: Porcine clinical-like allogeneic survival transplantation model (CLSM); assay type: in vivo, pig; conditions: not shown
Description: During and after surgery, systemic blood was collected for up to 4 days and analyzed for creatinine, sodium, potassium and phosphate (Section for Clinical Chemistry, Uppsala University Hospital).
These studies were approved by the Ethics Committee for Animal Experimentation, Uppsala, Sweden, Dnr C123/14. For each of these studies (SM and CLSM) five donor pigs and 10 recipient pigs of both sexes were used. All pigs were certified SPF pigs (Yorkshire×Hampshire) and bred at Lövsta University herd, SLU, Sweden. At arrival to SLU the pigs were 8 weeks old.
For the SM study, the pigs were selected after typing for Swine Leucocyte Antigen (SLA) class 1 in the following manner: the donor pigs were obtained from two litters and not related to any of the recipients. The recipient pigs were siblings, matched in pairs according to SLA class 1 (see below). For the CLSM study, all recipient pigs were siblings and not related to the donors, but these the pigs were not SLA-typed.
CLSM study: In this study, the retrieval of the kidney resembled the standard operative procedure of human organ procurement. Each donor was randomized to either PEG-phospholipid or HTK treatment. […]
The recipient pigs underwent allogeneic single kidney transplantation. […] By using a urine stick the sample was analyzed for proteinurea and hematuria. […]

N-(methylpolyoxyethylene oxycarbonyl)-1,2-dipalmitoyl-sn-glycero-3-phosphoethanolamine [PEG-phospholipid]
binding of CD4-antibodies (CD4): not blocked; also recorded: no significant masking | binding of antibodies directed towards CD52 (CD52): entirely blocked; also recorded: near complete inhibition; also recorded: effective masking | binding capacity of CD8-antibodies (CD8): reduced but not entirely blocked; also recorded: partial masking | complement and coagulation markers (C3a, sC5b-9, TAT, C3b) ([1]; displaying lower values): confirmed these results | cytokines / systemic inflammation [1]: confirmed these results
